Experimental data published in US6605742B2, “Cyclo azaphospha hydrocarbons” (priority 2001, dated 2003).

Assays:
Format in all cases: biochemical
MMP-2 = target: T1, MMP-2 (Homo sapiens, UniProt P08253); assay: Test for MMP inhibitory effects: cleavage of fluorescein-conjugated gelatin by MMP-2
T1 construct: purchased Biogenesis Ltd, UK
T1 sequence (P08253 110-660): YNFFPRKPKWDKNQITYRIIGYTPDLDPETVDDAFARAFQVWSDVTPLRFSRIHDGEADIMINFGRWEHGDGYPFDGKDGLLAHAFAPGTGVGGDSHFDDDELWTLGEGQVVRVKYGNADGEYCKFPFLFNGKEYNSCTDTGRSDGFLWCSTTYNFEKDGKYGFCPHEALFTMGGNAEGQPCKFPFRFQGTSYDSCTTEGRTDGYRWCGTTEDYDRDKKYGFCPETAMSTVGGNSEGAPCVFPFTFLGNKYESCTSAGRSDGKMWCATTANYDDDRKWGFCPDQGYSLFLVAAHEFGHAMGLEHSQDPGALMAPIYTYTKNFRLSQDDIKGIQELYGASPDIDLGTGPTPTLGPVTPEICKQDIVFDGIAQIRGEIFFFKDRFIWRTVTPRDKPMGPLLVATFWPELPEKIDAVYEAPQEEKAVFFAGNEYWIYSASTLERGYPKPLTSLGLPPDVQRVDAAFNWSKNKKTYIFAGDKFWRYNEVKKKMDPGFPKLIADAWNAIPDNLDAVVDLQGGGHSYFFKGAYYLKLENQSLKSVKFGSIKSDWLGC
Description: (§1) The assay measures the effect of the tested compounds on the proteolytic activity of metalloproteases by assessing the cleavage of a fluorogenic substrate. In the uncleaved substrate the fluoresensce is quenched intramolecularly, however, cleavage of the substrate relieves the quenching yielding fluorescent peptides [Bickett, Anal. Biochem, 212, 58-64, 1993; Knight, FEBS Lett., 296, 263-266, 1992].
(§2) The compounds were tested for inhibitory effects towards MMP-1 and MMP-9 (Chemicon International, CA, USA) and MMP-2 (Biogenesis Ltd, UK). Substrate for MMP-1 was M-2055 (Dnp-Pro-β-cyclohexyl-Ala-Gly-Cys(Me)-His-Ala-Lys(N-Me-Abz)-NH2), which is a synthetic peptide-like structure, obtained from Bachem AG, Schwitzerland. Substrate for MMP-2 and MMP-9 was fluorescein-conjugated gelatin obtained from Molecular Probes Inc., OR, USA.
(§3) The enzymes were activated with phenyl mercuric acetate, and incubated with the appropriate substrate and different levels of the compound to be tested. The exitation/emission wavelengths were 350/450 and 485/530 for M-2055 and gelatine, respectively.
(§4) The molar concentration of the test compounds resulting in 50% inhibition of the enzymatic activity (IC50) was calculated from the dose-response curve. For convenience, the results are reported as pIC50, i.e. −log(IC50).

MMP-1 = target: T2, MMP-1 (Homo sapiens, UniProt P03956); assay: Test for MMP inhibitory effects: cleavage of fluorogenic substrate M-2055 by MMP-1
T2 construct: purchased Chemicon International, CA, USA
T2 sequence (P03956 100-469): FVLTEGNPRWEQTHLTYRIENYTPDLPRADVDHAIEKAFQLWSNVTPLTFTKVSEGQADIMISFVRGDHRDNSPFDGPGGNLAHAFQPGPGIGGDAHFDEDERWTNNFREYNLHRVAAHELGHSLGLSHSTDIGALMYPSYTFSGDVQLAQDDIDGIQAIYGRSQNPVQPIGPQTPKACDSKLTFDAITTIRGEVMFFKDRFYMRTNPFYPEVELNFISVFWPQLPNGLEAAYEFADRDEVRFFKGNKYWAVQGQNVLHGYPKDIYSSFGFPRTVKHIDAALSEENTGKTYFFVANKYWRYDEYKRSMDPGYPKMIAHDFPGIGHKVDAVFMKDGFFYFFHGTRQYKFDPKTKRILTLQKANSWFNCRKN
Description: as §1, §2, §3, §4

MMP-9 = target: T3, MMP-9 (Homo sapiens, UniProt P14780); assay: Test for MMP inhibitory effects: cleavage of fluorescein-conjugated gelatin by MMP-9
T3 construct: purchased Chemicon International, CA, USA
T3 sequence (P14780 107-707 limits assumed, species assumed): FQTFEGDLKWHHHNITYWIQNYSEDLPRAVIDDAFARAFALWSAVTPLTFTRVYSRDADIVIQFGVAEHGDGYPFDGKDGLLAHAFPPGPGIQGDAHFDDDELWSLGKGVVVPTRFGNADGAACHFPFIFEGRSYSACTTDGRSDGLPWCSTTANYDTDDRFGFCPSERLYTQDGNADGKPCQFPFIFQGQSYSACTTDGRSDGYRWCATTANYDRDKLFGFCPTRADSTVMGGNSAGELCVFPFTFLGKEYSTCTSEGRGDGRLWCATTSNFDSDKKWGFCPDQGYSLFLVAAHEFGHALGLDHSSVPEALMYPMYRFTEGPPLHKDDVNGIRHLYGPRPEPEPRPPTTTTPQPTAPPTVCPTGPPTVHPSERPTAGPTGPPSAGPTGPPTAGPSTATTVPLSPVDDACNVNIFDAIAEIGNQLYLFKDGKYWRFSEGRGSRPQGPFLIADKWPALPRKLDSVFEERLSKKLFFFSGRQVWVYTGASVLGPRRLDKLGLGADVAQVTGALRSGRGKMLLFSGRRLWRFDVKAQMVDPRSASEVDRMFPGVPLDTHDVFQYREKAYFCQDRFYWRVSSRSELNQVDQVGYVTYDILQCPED
Description: as §1, §2, §3, §4

[1] = pIC50 = -log(IC50), molar, enzyme activated with phenyl mercuric acetate, substrate fluorescein-conjugated gelatin, excitation/emission 485/530

| Compound | IC50 (MMP-2) [nM] | IC50 (MMP-1) [nM] | IC50 (MMP-9) [nM] | pIC50 MMP-2 (MMP-2; [1]) | pIC50 MMP-1 (MMP-1; pIC50 = -log(IC50), molar, enzyme activated with phenyl mercuric acetate, substrate M-2055, excitation/emission 350/450) | pIC50 MMP-9 (MMP-9; [1]) |
| --- | --- | --- | --- | --- | --- | --- |
| O=C(CN1CC=CCP1(=O)c1ccc(Oc2ccccc2)cc1)NO (racemic) [Example 1, (±)-N-hydroxy-2-oxo-2-(4-phenoxyphenyl)-azaphosphorin-4-ene-1-acetamide] | 5.01 | 2510 | 1 | – | – | – |
| O=C(CN1CC=CCCP1(=O)c1ccc(Oc2ccccc2)cc1)NO (racemic) [Example 4, (±)-N-hydroxy-2-oxo-2-(4-phenoxyphenyl)-azaphosphorep-5-ene-1-acetamide] | 7.94 | 7940 | 6.31 | – | – | – |
| O=C(CN1CCCCCP1(=O)c1ccc(Oc2ccccc2)cc1)NO (racemic) [Example 5, (±)-N-hydroxy-2-oxo-2-(4-phenoxyphenyl)-azaphosphorepane-1-acetamide] | – | – | – | 8.3 | 5.2 | 8.5 |
| O=C(CN1CC=CCP1(=O)c1ccc(Oc2ccc(Cl)cc2)cc1)NO (racemic) [Example 6, (±)-N-hydroxy-2-(4-(4-chlorophenoxy)-phenyl-2-oxo-azaphosphorin-4-ene-1-acetamide] | 3.98 | 5010 | 0.794 | – | – | – |
